Values after ≈ are worked out from the molar mass of the structure shown.
Experiments:
Caco-2 = experiment: MTT cytotoxicity assay on Caco-2; type: cell-based; conditions: Homo sapiens, Caco-2, read-out: IC50 Caco-2
HEK-293 = experiment: MTT cytotoxicity assay on non-cancerous HEK-293; type: cell-based; conditions: Homo sapiens, HEK293, read-out: IC50 HEK-293
MDA-MB-231 = experiment: MTT cytotoxicity assay on MDA-MB-231; type: cell-based
[1] = test system: MCF-7 breast cancer cells; conditions: read-out: IC50 MCF-7; literature hybrids 5-7 and 5-FU; cited from earlier work

With Cc1ccc(CNC(=O)Cn2cc(CSc3nc4ccccc4[nH]3)nn2)cc1 [Compound 11] the IC50 (Caco-2) was 63.8 ± 1.09 µg/mL (≈ 163 µM), the IC50 (HEK-293) was 63.4 ± 2.5 µg/mL (≈ 162 µM) and the IC50 (MDA-MB-231; Homo sapiens, MDA-MB-231, read-out: IC50 MDA-MB-231) was 68.3 ± 3.1 µg/mL (≈ 174 µM). For the same compound, the “SI HEK/MDA” value (MDA-MB-231; selectivity index, HEK-293 vs MDA-MB-231) was 0.93.
In the case of O=c1[nH]cc(F)c(=O)[nH]1 [Compound 5-FU, 5-FU], the IC50 [1] is given as 12.4 µM.
